Experimental data taken from patent publication US6482827B1, “Matrix metalloproteinase inhibitors” (Pharmacia & Upjohn S.p.A., priority 1997, dated 2002).
In brackets after ≈: the same amount, converted by molar mass. Each block holds one compound with its values, some of them ahead of it.

Tests used:
Aqueous solubility = type: physicochemical; conditions: water; 25° C., Conditions B
[1] = target: T1, Human stromelysin-1-255 (MMP-3) (Homo sapiens, UniProt P08254); assay: Biochemical assay (Protocol A), Ki at steady state, MMP-3; conditions: preincubation, 37° C., pH=7.4, read-out: Ki at steady state (Ki*) for inhibition of MMP-3
T1 construct: host or cells: E. coli
T1 sequence (P08254 100-255 limits assumed): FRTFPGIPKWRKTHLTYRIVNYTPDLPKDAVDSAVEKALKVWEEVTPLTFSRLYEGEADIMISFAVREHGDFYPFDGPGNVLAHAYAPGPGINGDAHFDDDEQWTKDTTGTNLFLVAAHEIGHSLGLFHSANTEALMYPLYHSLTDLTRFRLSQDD
Experimental: (§1) Human gelatinase-A (MMP-2) was obtained as pro-enzyme (72 kDa) and was activated with 1 mM 4-aminophenylmercuric acetate for 30 min at 37° C. immediately prior to use. Human stromelysin-1-255 (MMP-3) was obtained as a recombinant pro-enzyme isolated from E. coli and activated by heat (1 h, 55° C.).
(§2) The substrate was the commercial quenched-fluorescence peptide Mca-Pro-Leu-Gly-Leu-Dpa-Ala-Arg-NH2, that is (7-methoxycoumarin4-yl)Acetyl-Pro-Leu-Glv-Leu-(3-[2,4-dinitrophenyl]-L-2,3-diamino-propionyl)-Ala-Arg-NH2 (C. G. Knight et al., FEBS Lett.296:263, 1992). The enzymes cleave at the Gly-Leu bond, removing the internally quenching Dpa group. Release of the highly fluorescent peptide Mca-Pro-Leu was followed fluorimetrically at 37° C. using a Perkin Elmer LS-50 Fluorescence Spectrophotometer fitted with a thermostatted four position stirring cell changer. The excitation wavelength was set at 326 nm (bandwidth 5 nm) and the emission at 392 nm (bandwidth 20 nm). Km values of this substrate for the three MMP's is 70 μM or more (Knight et al., reference above). Substrate concentration was 2 μM in the tests, so that we could approximate to unit the term (1+[substrate]/KM) in calculations. The substrate was stable for over 60 minutes in the assay conditions, giving no appreciable increment of fluorescence. Full response was adjusted against 200 nM Mca-Pro-Leu-OH (the released fluorescent peptide) and the instrument was calibrated in the range 0-100 nM Mca-Pro-Leu-OH, corresponding to 0-5% extent of hydrolysis of the 2 μM substrate. The aqueous assay buffer was 50 mM Tris/HCl pH=7.4 containing 0.15 M NaCl, 10 mM CaCl2, 0.01 mM ZnCl2 and 0.05% Brij 35. The concentration of the activated enzyme was determined by titration against representative inhibitors described in the literature and synthesized in house: Roche Ro31-9790 (N. G. Knebel et al., J. Chromatogr. B 673:213, 1995) for MMP-1, and Celltech CT-1418 (compound 1 in S. K. Chander, J. Pharm. Sci. 84:404, 1995) for MMP-2 and MMP-3. Enzyme concentrations in the tests were set at 1.0 nM for MMP-1, 0.04 nM for MMP-2, and 3.0 nM for M-3. Under our assay conditions, we measured keat/KM values of 26900, 669000 and 9740 1/(M×s) for MMP-1, MMP-2 and MMP-3, respectively. All the three enzymes were found stable for over three hours in the assay conditions.
(§3) The inhibition constant for compounds of the present invention was measured at steady state (Ki*; see J. F. Morrison and C. T. Walsh, Adv. Enzymol. Relat. Areas Mol. Biol. 61:201, 1988), upon preincubation experiment, by measuring V0, the initial rate in the absence of inhibitor, and Vs, the steady-state velocity, at different concentrations of inhibitors in the region of their enzyme-inhibitor dissociation constants.
(§4) On a routine basis, 1.94 mL of assay buffer was pre-heated at 37° C. in a vial, 0.02 mL of inhibitor in DMSO (or DMSO only), and 0.02 ml of 100 nM MMP-1 or 4 nM MMP-2 or 300 nM MMP-3 were added, mixed, and the vial was held at 37° C. for 5-180 minutes. Then 0.02 ml of 0.2 mM substrate was added, mixed and transferred into a pre-heated cell. The sample was allowed to equilibrate in the cuvette for 3-5 min at 37° C. against small changes in temperature and changes in the enzyme-inhibitor equilibria related to addition of substrate. After that, the linear increase of fluorescence was monitored over 3-5 min, and the slope (Vo or Vs) was obtained. Inhibitor concentrations were varied to collect data over Vs/Vo ratio ranging from 0.05 to 0.95. The values of Ki* were calculated by nonlinear weighted regression to the tight-binding equation according to Morrison and Walsh above:
(§5) Vs/Vo=[1/(2×Et)]×SQR[(Ki*+It−Et)^2+4×Ki*×Et]−(Ki*+It−Et)
(§6) wherein Et is the total enzyme concentration, and It is the total inhibitor concentration. The following Table I lists Ki* obtained for some representative examples: […]

[2] = PK parameters, oral route, rat; type: in vivo; conditions: plasma, 10-15 mg/kg
Experimental: (§7) As an additional example, Table 4 reports the maximum plasma concentration (Cmax) and oral bioavailability (% F; calculated from dose-normalised ratio of oral to i.v. mean AUC values) after oral administration to rats or cynomolgus monkeys of a […] of some representative compounds of the present invention.

[3] = target: T2, Human collagenase (MMP-1) (Homo sapiens, UniProt P03956); assay: Biochemical assay (Protocol A), Ki at steady state, MMP-1; conditions: preincubation, 37° C., pH=7.4, read-out: Ki at steady state (Ki*) for inhibition of MMP-1
T2 sequence (P03956 101-269): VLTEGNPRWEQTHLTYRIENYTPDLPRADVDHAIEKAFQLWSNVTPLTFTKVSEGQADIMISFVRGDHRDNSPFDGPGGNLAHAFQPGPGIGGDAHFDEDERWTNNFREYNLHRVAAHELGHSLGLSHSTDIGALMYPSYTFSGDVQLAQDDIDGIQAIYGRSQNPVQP
Experimental: as §1, §2, §3, §4, §5, §6

[4] = PK parameters in rats, iv route; conditions: rat, in vivo, 10-15 mg/kg
Experimental: As a further example, Table 3 reports clearance and AUC values measured after intravenous administration to rats of a […] of some representative compounds of the present invention.

[5] = target: T3, Human gelatinase-A (MMP-2) (Homo sapiens, UniProt P08253); assay: Biochemical assay (Protocol A), Ki at steady state, MMP-2; conditions: preincubation, 37° C., pH=7.4, read-out: Ki at steady state (Ki*) for inhibition of MMP-2
T3 sequence (P08253 110-660): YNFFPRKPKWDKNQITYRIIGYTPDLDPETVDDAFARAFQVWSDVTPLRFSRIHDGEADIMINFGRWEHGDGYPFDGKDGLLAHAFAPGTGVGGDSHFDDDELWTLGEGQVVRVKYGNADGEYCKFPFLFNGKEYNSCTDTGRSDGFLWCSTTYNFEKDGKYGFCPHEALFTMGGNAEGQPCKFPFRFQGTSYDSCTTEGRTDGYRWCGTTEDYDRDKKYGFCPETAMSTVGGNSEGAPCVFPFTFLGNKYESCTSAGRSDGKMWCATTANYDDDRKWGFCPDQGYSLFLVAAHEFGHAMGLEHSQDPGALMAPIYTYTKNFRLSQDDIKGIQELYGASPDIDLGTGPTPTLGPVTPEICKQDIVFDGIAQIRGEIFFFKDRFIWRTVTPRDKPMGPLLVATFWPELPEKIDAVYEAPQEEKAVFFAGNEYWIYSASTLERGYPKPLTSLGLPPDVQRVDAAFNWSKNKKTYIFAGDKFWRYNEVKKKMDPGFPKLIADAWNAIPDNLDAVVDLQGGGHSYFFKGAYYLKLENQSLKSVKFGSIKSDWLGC
Experimental: as §1, §2, §3, §4, §5, §6

[6] = PK parameters, oral route, cynomolgus monkey; type: in vivo; conditions: plasma, 10-15 mg/kg
Experimental: as §7

stifle joints = assay: Animal model of tolerability with MMP inhibitors, histological evaluation of stifle joints; type: in vivo; conditions: rats, intraperitoneal, 10 consecutive days, daily doses of 150 mg/kg or less
Source text: Although MMPs have been recognized as drug targets for at least 20 years, and potent MMP inhibitors described by formula (A) have been disclosed since 1986 or before (e.g., see J. P. Dickens et al., U.S. Pat. No. 4,599,361), no drug of this type has arrived at the market yet. This is not because of questions about the therapeutic potential of MMP inhibitors, but because of problems of “peptide-based hydroxamates”, such as aqueous solubility, metabolic stability, and other desirable properties, oral bioavailability in particular (e.g., J. R. Porter, reference above; J. Hodgson, “Remodelling MMPIs”, Biotechnology 13:554-557, 1995). For example, it is well known that most “peptide-based hydroxamates” of general formula (A) are rapidly glucuronidated, oxidized to the carboxylic acid, and excreted in the bile (e.g., see J. Singh et al., Bioorg. Med. Chem. Lett. 5:337-342, 1995, and other references above). Finally, another type of problem of the known inhibitors described by general formula (A) may be one of tolerability. […] We have extended these observations by developing an animal model of tolerability with MMP inhibitors (S. Castellino et al., unpublished), involving intraperitoneal administration of the latter in rats for 10 consecutive days, and histological evaluation of stifle joints at the end of treatment. […]

[7] = clinic; cited from earlier work
[8] = dose-normalised ratio of oral to i.v. mean AUC, read-out: % F (oral bioavailability)

- solubility (Aqueous solubility): 7100 µg/mL (≈ 16.4 mM)
- Ki [1]: 240 nM
- bioavailability [2, 8]: 58%
- Cmax ([2]; read-out: Cmax): 7910 ng/mL
- Ki [3]: 6.5 nM
- AUC [4]: 11300 ng·h/mL
- clearance [4]: 23 mL/min/kg
- Ki [5]: 20 nM
- bioavailability [6, 8]: 34%
- Cmax ([6]; read-out: Cmax): 3130 ng/mL
Structure (SMILES): N[C@H](C(=O)NO)[C@@H](CC1CCCC1)C(=O)N1CCN(Cc2ccc3c(c2)OCO3)CC1 [Example 27, (3S-Amino-2R-cyclopentylmethyl-4-hydroxyamino)succinyl-(4-piperonyl)piperazinamide]

Structure (SMILES): CNC(=O)[C@@H](NC(=O)[C@@H](CC(=O)NO)CC(C)C)C(C)(C)C [Ro31-9790]
- Histological findings in stifle joints (stifle joints): hypertrophic fibrosis of stifle ligaments, interstitial hypertrophic fibrosis of skeletal muscles, hypertrophic fibroplasia of the periostium and synovium, and chondrosysplasia and decreased endochondrial ossification of the ephyseal plate

Structure (SMILES): CNC(=O)[C@@H](NC(=O)[C@H](CC(C)C)[C@H](O)C(=O)NO)C(C)(C)C [marimastat]
- Tolerability in humans [7]: muscoloskeletal problems
